These results are taken from patent US6875761B2 (Eisai Co., Ltd., priority 1997, dated 2005).

Structures can show the parent of a compound that is named as a salt.

One assay has as its target T1, serotonin 2 receptor (Rattus norvegicus, UniProt P14842).
T1 construct: To the receptor fraction of the cerebral cortex were added a test compound and 0.3 nM of [^3H] ketanserin; from tissue; host or cells: rat cerebral cortex membrane fraction
In words: Binding test on [3H] ketanserin, cerebral cortex receptor fraction. On the set-up: species or system SD rats. The note with it: 0.3 nM [3H] ketanserin, 37° C. 15 min, read-out: 5HT2.

A further assay deals with T2, serotonin 1A receptor (Rattus norvegicus, UniProt P19327).
T2 construct: To the receptor fraction of the hippocampus were added a test compound and 0.5 nM of [^3H]; 8-hydroxy-dipropylaminotetralin; from tissue; host or cells: rat hippocampus membrane fraction
T2 sequence (P19327 1-422): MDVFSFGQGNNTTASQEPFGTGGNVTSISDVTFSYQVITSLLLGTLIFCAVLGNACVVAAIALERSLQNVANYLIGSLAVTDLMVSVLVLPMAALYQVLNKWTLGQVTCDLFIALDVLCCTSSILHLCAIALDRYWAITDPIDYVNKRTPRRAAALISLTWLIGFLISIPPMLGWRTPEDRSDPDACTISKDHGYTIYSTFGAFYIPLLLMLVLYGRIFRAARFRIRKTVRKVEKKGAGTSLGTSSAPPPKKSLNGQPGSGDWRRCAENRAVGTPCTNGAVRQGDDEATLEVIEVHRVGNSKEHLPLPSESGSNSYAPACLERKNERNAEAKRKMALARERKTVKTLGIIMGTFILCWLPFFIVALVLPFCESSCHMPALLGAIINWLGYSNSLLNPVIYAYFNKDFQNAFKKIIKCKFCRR
In words: Binding test on [3H] 8-hydroxy-dipropylaminotetralin, hippocampus receptor fraction. To be noted: rat hippocampus receptor fraction, 0.5 nM [3H] 8-OH-DPAT, room temperature 30 min; read-out: 5HT1. On the set-up: species or system SD rats.

T1 sequence (P14842 whole entry): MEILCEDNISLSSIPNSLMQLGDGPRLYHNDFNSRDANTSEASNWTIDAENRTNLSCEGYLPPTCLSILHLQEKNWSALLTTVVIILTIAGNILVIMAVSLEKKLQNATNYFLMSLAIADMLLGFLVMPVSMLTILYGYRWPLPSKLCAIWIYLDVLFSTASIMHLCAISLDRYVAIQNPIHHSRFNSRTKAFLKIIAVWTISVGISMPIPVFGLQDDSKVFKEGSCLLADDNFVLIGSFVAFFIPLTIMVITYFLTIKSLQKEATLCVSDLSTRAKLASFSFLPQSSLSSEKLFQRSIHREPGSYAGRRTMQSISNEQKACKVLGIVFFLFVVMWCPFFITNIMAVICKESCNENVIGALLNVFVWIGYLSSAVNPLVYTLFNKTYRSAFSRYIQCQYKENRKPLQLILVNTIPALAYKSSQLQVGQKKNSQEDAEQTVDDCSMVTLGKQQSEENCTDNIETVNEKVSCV

Consider `CCN1CCN(c2nc(-c3ccc(C(=O)NC)cc3)cc3ccccc23)CC1` [Example 365, 1-(4-ethylpiperazin-1-yl)-3-[4-(N-methylcarbamoyl)phenyl]isoquinoline dihydrochloride], for which the Ki is 9.9 nM on serotonin 2 receptor and 26.2 nM on serotonin 1A receptor.
In the case of `CCN1CCN(c2nc(-c3ccc(S(=O)(=O)CC)cc3)cc3ccccc23)CC1` [Example 366, 1-(4-ethylpiperazin-1-yl)-3-[4-(ethylsulfonyl)phenyl]isoquinoline dihydrochloride], the Ki turned out to be 7.2 nM on serotonin 2 receptor and 3.8 nM on serotonin 1A receptor.
For the compound `CCCC(=O)NCc1ccc(-c2cc3ccccc3c(N3CCN(CC)CC3)n2)cc1` [Example 86, 3-(4-Propylcarbonylaminomethylphenyl)-1-(4-ethylpiperazin-1-yl)isoquinoline Hydrochloride], the Ki amounted to 5.3 nM on serotonin 2 receptor and 11.7 nM at serotonin 1A receptor.
As to `CCN1CCN(c2nc(-c3ccc(CCO)s3)cc3ccccc23)CC1` [Example 163, 1-(1-ethylpiperazin-4-yl)-3-[2-(2-hydroxyethyl)thiophen-5-yl]isoquinoline dihydrochloride], the Ki came to 19.2 nM at serotonin 2 receptor and 25.1 nM on serotonin 1A receptor.
In the case of `CCCN(C)C(=O)c1ccc(-c2cc3ccccc3c(N3CCN(CC)CC3)n2)cc1` [Example 381], the values for the Ki at serotonin 2 receptor and at serotonin 1A receptor were 27.3 nM and 11.1 nM, respectively.
For `CCN1CCN(c2nc(-c3ccc(S(C)(=O)=O)nc3)cc3ccccc23)CC1` [Example 129, 3-[(2-Methylsulfonylpyridin)-5-yl]-1-(4-Ethylpiperazin-1-yl)Isoquinoline Hydrochloride], the Ki at serotonin 2 receptor turned out to be 18.4 nM; on serotonin 1A receptor, 21.6 nM.
Take `CCN1CCN(c2nc(-c3ccc(OCCO)c(OC)c3)cc3ccccc23)CC1` [Example 340, 1-(4-ethylpiperazin-1-yl)-3-[4-(2-hydroxyethoxy)-3-methoxyphenyl]isoquinoline dihydrochloride]: the results for the Ki on serotonin 2 receptor and at serotonin 1A receptor were 20.7 nM and 26 nM, respectively.
On to `CCN1CCN(c2nc(-c3ccc(CC(C)(C)CO)cc3)cc3ccsc23)CC1` [Example 442, 7-(4-ethylpiperazin-1-yl)-5-[4-(3-hydroxy-2,2-dimethylpropyl)phenyl]thieno[2,3-c]pyridine dihydrochloride], for which the Ki amounted to 2.66 nM on serotonin 2 receptor and 23.2 nM at serotonin 1A receptor.
On the same counts, the results for `CCN1CCN(c2nc(-c3ccc(SC[C@@H](C)O)cc3)cc3ccsc23)CC1` [Example 444, 7-(4-ethylpiperazin-1-yl)-5-[4-(2-hydroxypropylthio)phenyl]thieno[2,3-c]pyridine dihydrochloride] are 12 nM and 43.2 nM.
With `CCN1CCN(c2nc(-c3ccc(CCC(C)O)cc3)cc3cccnc23)CC1` (stereo not drawn) [Example 248, 8-(1-ethylpiperazin-4-yl)-6-[4-(3-hydroxybutyl)phenyl]-1,7-naphthyridine Dihydrochloride], the Ki on serotonin 2 receptor was 31.6 nM; at serotonin 1A receptor it was 43 nM.
Take `CCN1CCN(c2nc(-c3ccc(CCCO)c(OC)c3)cc3ccsc23)CC1` [Example 433, 7-(4-ethylpiperazin-1-yl)-5-[4-(3-hydroxypropyl)-3-methoxyphenyl]thieno[2,3-c]-pyridine hydrochloride]: the Ki at serotonin 2 receptor is 3.53 nM; on serotonin 1A receptor it was 20.6 nM.
On the same counts, the results for `CCN1CCN(c2nc(-c3ccc(OCCCSC)cc3)cc3ccccc23)CC1` [Example 54, 3-[4-(3-Methylthiopropoxy)Phenyl]-1-(4-Ethylpiperazin-1-Yl)Isoquinoline Hydrochloride] are 4.9 nM and 62.1 nM.
As for `CCN1CCN(c2nc(-c3ccnc(Cl)c3)cc3ccccc23)CC1` [406 2-chloro, 1-(4-ethylpiperazin-1-yl)-3-(2-chloropyridin-4-yl)isoquinoline], the figures for the Ki at serotonin 2 receptor and on serotonin 1A receptor were 11.1 nM and 12.2 nM, respectively.
On to `CCN1CCN(c2nc(-c3ccc([C@@H]4C[C@@H](O)CCO4)cc3)cc3ccsc23)CC1` (relative stereo) [Example 455, 7-(4-ethylpiperazin-1-yl)-5-[4-(trans-4-hydroxytetrahydropyran-2-yl)phenyl]thieno[2,3-c]pyridine dihydrochloride], for which the values for the Ki at serotonin 2 receptor and on serotonin 1A receptor were 40 nM and 50.3 nM, respectively.
In the case of `CCN1CCN(c2nc(-c3ccc(S(=O)(=O)N4CCCC4)cc3)cc3ccccc23)CC1` [Example 356, 1-(4-ethylpiperazin-1-yl)-3-[4-(pyrrolidin-1-yl)sulfonylphenyl]isoquinoline dihydrochloride], the Ki at serotonin 2 receptor came out at 24.2 nM; at serotonin 1A receptor, 2.1 nM.
In the case of `CCN1CCN(c2nc(-c3ccc(N4CCC(O)CC4)cc3)cc3ccccc23)CC1` [Example 97, 1-(4-Ethylpiperazin-1-yl)-3-[4-(4-hydroxypiperidin-1-yl)phenyl]isoquinoline Trihydrochloride], the Ki at serotonin 2 receptor was 13.3 nM; on serotonin 1A receptor, 34.7 nM.
For `CCN1CCN(c2nc(-c3ccc(OCC(C)(C)O)cc3)cc3ccccc23)CC1` [Example 309, 1-(1-ethylpiperazin-4-yl)-3-[4-(2-hydroxy-2-methylpropoxy)phenyl]isoquinoline dihydrochloride], the values for the Ki on serotonin 2 receptor and at serotonin 1A receptor were 0.01 nM and 91 nM, respectively.
In the case of `CCN1CCN(c2nc(-c3ccc(OCC(N)=O)cc3)cc3ccccc23)CC1` [Example 338, 1-(4-ethylpiperazin-1-yl)-3-(4-carbamoylmethoxyphenyl)isoquinoline dihydrochloride], the Ki at serotonin 2 receptor worked out at 61.9 nM; at serotonin 1A receptor it was 14.1 nM.
Regarding `CCC#Cc1ccc(-c2cc3ccccc3c(N3CCN(CC)CC3)n2)cn1` [Example 146, 1-(1-ethylpiperazin-4-yl)-3-[2-(1-butyn-1-yl)pyridin-5-yl]isoquinoline], the results for the Ki on serotonin 2 receptor and at serotonin 1A receptor were 2.9 nM and 170 nM, respectively.
For `CCN1CCN(c2nc(/C=C/c3cccc(N4CCOCC4)c3)cc3ccccc23)CC1` [Example 204, 3-{(E)-2-[3-(4-Morpholinyl)Phenyl]Ethenyl}-1-(4-Ethylpiperazin-1-Yl)Isoquinoline Oxalate], the Ki on serotonin 2 receptor amounted to 18.5 nM; on serotonin 1A receptor, 25.5 nM.
For the compound `CCN1CCN(c2nc(-c3ccc(S(C)(=O)=O)cc3)cc3ccccc23)CC1` [Example 342, 1-(4-ethylpiperazin-1-yl)-3-(4-methylsulfonylphenyl)isoquinoline dihydrochloride], the values for the Ki on serotonin 2 receptor and on serotonin 1A receptor were 14.9 nM and 6.2 nM, respectively.
`CCN1CCN(c2nc(-c3ccc(OC)c(CCCO)c3)cc3ccsc23)CC1` [Example 261, 5-[3-(3-hydroxypropyl)-4-methoxyphenyl]-7-(4-ethylpiperazin-1-yl)thieno[2,3-c]pyridine Oxalate]: the results for the Ki at serotonin 2 receptor and at serotonin 1A receptor were 0.06 nM and 53.7 nM, respectively.
As for `CCN1CCN(c2nc(-c3ccc(CO)cc3)cc3ccccc23)CC1` [Example 17, 1-(4-ethylpiperazin-1-yl)-3-(4-hydroxymethylphenyl)isoquinoline hydrochloride], the Ki on serotonin 2 receptor is 26.8 nM; at serotonin 1A receptor it was 11.1 nM.
In the case of `CCN1CCN(c2nc(/C=C/c3cccc(OCCO)c3)cc3ccccc23)CC1` [Example 199, 1-(1-Ethylpiperazin-4-Yl)-3-(Trans-2-(3-(2-Hydroxyethoxy)Phenyl]Ethenyl]isoquinoline Oxalate], the Ki on serotonin 2 receptor was 3.8 nM; on serotonin 1A receptor, 3.27 nM.
